Experiment: Example 2: diuretic induced hemo-concentration patient, transthoracic echocardiography and body weight
Format: in vivo, human
Experimental: A person weighing 180 pounds, with a history of a prior myocardial infarction, was hospitalized with fatigue, peripheral edema and difficulty in breathing. […] Diuretic therapy effected by administering IV bolus doses of 150 mg furosemide every 12 hours was started. Their body weight measurement after 48 hours of furosemide treatment was 172 pounds.
The patient was continued on furosemide and a 15% solution of purified poloxamer 188 in citrate buffered saline was administered at a dose of 250 mg/kg as an IV infusion over a period of 1 hour. Twenty-four hours later, their body weight was 168 pounds.

With `NS(=O)(=O)c1cc(C(=O)O)c(NCc2ccco2)cc1Cl` [furosemide] as the compound, how does the body weight (after 48 hours of furosemide 150 mg IV bolus every 12 hours, 180 pounds at admission) read?
The body weight was 172 pounds.

What about the ejection fraction (after 48 hours of furosemide alone, 30% at admission) of the same compound?
The ejection fraction was 29%.

From US20160235781A1, “DIURETIC INDUCED ALTERATIONS OF PLASMA VOLUME” (MAST THERAPEUTICS, INC., priority 2013, published 2016)
